Test results taken from ChEMBL document CHEMBL1156163, “(18)F Labeled benzimidazole derivatives as potential radiotracer for positron emission tomography (PET) tumor imaging” (Bioorg Med Chem, 2010).

What was measured:
[1] = Biodistribution in mouse S180 cells xenografted Kunming mouse tumor at 10 to 20 uCi, iv after 120 mins by gamma counting; type: ADME, organism-based, Neoplasm, CCRF S-180; details: in vivo, 2 h
[2] = Ratio of drug uptake in tumor to blood of mouse S180 cells xenografted Kunming mouse at 10 to 20 uCi, iv after 120 mins by gamma counting; type: ADME, organism-based, CCRF S-180; details: tumour, 2 h
[3] = Ratio of drug uptake in tumor to brain of mouse S180 cells xenografted Kunming mouse at 10 to 20 uCi, iv after 120 mins by gamma counting; type: ADME, organism-based, CCRF S-180; details: in vivo, 2 h
[4] = system: Heart; experiment: Biodistribution in mouse S180 cells xenografted Kunming mouse heart at 10 to 20 uCi, iv after 5 mins by gamma counting; type: ADME, organism-based, CCRF S-180; details: in vivo
[5] = system: Pancreas; experiment: Biodistribution in mouse S180 cells xenografted Kunming mouse pancreas at 10 to 20 uCi, iv after 5 mins by gamma counting; type: ADME, organism-based, CCRF S-180; details: in vivo
[6] = system: Lung; experiment: Biodistribution in mouse S180 cells xenografted Kunming mouse lung at 10 to 20 uCi, iv after 5 mins by gamma counting; type: ADME, organism-based, CCRF S-180; details: in vivo
[7] = system: Muscle tissue; experiment: Biodistribution in mouse S180 cells xenografted Kunming mouse muscle at 10 to 20 uCi, iv after 5 mins by gamma counting; type: ADME, organism-based, CCRF S-180; details: in vivo
[8] = system: Brain; experiment: Biodistribution in mouse S180 cells xenografted Kunming mouse brain at 10 to 20 uCi, iv after 5 mins by gamma counting; type: ADME, organism-based, CCRF S-180; details: in vivo
[9] = Biodistribution in mouse S180 cells xenografted Kunming mouse tumor at 10 to 20 uCi, iv after 5 mins by gamma counting; type: ADME, organism-based, Neoplasm, CCRF S-180; details: in vivo
[10] = Ratio of drug uptake in tumor to blood of mouse S180 cells xenografted Kunming mouse at 10 to 20 uCi, iv after 5 mins by gamma counting; type: ADME, organism-based, CCRF S-180; details: tumour
[11] = Ratio of drug uptake in tumor to muscle of mouse S180 cells xenografted Kunming mouse at 10 to 20 uCi, iv after 5 mins by gamma counting; type: ADME, organism-based, CCRF S-180; details: in vivo
[12] = Ratio of drug uptake in tumor to brain of mouse S180 cells xenografted Kunming mouse at 10 to 20 uCi, iv after 5 mins by gamma counting; type: ADME, organism-based, CCRF S-180; details: in vivo
[13] = system: Pancreas; experiment: Biodistribution in mouse S180 cells xenografted Kunming mouse pancreas at 10 to 20 uCi, iv after 15 mins by gamma counting; type: ADME, organism-based, CCRF S-180; details: in vivo, 0.25 h
[14] = system: Muscle tissue; experiment: Biodistribution in mouse S180 cells xenografted Kunming mouse muscle at 10 to 20 uCi, iv after 15 mins by gamma counting; type: ADME, organism-based, CCRF S-180; details: in vivo, 0.25 h
[15] = system: Blood; experiment: Biodistribution in mouse S180 cells xenografted Kunming mouse blood at 10 to 20 uCi, iv after 15 mins by gamma counting; type: ADME, organism-based, CCRF S-180; details: in vivo, 0.25 h
[16] = system: Brain; experiment: Biodistribution in mouse S180 cells xenografted Kunming mouse brain at 10 to 20 uCi, iv after 15 mins by gamma counting; type: ADME, organism-based, CCRF S-180; details: in vivo, 0.25 h
[17] = Biodistribution in mouse S180 cells xenografted Kunming mouse tumor at 10 to 20 uCi, iv after 15 mins by gamma counting; type: ADME, organism-based, Neoplasm, CCRF S-180; details: in vivo, 0.25 h
[18] = Ratio of drug uptake in tumor to blood of mouse S180 cells xenografted Kunming mouse at 10 to 20 uCi, iv after 15 mins by gamma counting; type: ADME, organism-based, CCRF S-180; details: tumour, 0.25 h
[19] = Ratio of drug uptake in tumor to muscle of mouse S180 cells xenografted Kunming mouse at 10 to 20 uCi, iv after 15 mins by gamma counting; type: ADME, organism-based, CCRF S-180; details: in vivo, 0.25 h
[20] = Ratio of drug uptake in tumor to brain of mouse S180 cells xenografted Kunming mouse at 10 to 20 uCi, iv after 15 mins by gamma counting; type: ADME, organism-based, CCRF S-180; details: in vivo, 0.25 h
[21] = system: Heart; experiment: Biodistribution in mouse S180 cells xenografted Kunming mouse heart at 10 to 20 uCi, iv after 30 mins by gamma counting; type: ADME, organism-based, CCRF S-180; details: in vivo, 0.5 h
[22] = system: Pancreas; experiment: Biodistribution in mouse S180 cells xenografted Kunming mouse pancreas at 10 to 20 uCi, iv after 30 mins by gamma counting; type: ADME, organism-based, CCRF S-180; details: in vivo, 0.5 h
[23] = system: Lung; experiment: Biodistribution in mouse S180 cells xenografted Kunming mouse lung at 10 to 20 uCi, iv after 30 mins by gamma counting; type: ADME, organism-based, CCRF S-180; details: in vivo, 0.5 h
[24] = system: Kidney; experiment: Biodistribution in mouse S180 cells xenografted Kunming mouse kidney at 10 to 20 uCi, iv after 30 mins by gamma counting; type: ADME, organism-based, CCRF S-180; details: in vivo, 0.5 h
[25] = system: Brain; experiment: Biodistribution in mouse S180 cells xenografted Kunming mouse brain at 10 to 20 uCi, iv after 30 mins by gamma counting; type: ADME, organism-based, CCRF S-180; details: in vivo, 0.5 h
[26] = Biodistribution in mouse S180 cells xenografted Kunming mouse tumor at 10 to 20 uCi, iv after 30 mins by gamma counting; type: ADME, organism-based, Neoplasm, CCRF S-180; details: in vivo, 0.5 h
[27] = Ratio of drug uptake in tumor to muscle of mouse S180 cells xenografted Kunming mouse at 10 to 20 uCi, iv after 30 mins by gamma counting; type: ADME, organism-based, CCRF S-180; details: in vivo, 0.5 h
[28] = system: Heart; experiment: Biodistribution in mouse S180 cells xenografted Kunming mouse heart at 10 to 20 uCi, iv after 60 mins by gamma counting; type: ADME, organism-based, CCRF S-180; details: in vivo, 1 h
[29] = system: Liver; experiment: Biodistribution in mouse S180 cells xenografted Kunming mouse liver at 10 to 20 uCi, iv after 60 mins by gamma counting; type: ADME, organism-based, CCRF S-180; details: in vivo, 1 h
[30] = system: Blood; experiment: Biodistribution in mouse S180 cells xenografted Kunming mouse blood at 10 to 20 uCi, iv after 60 mins by gamma counting; type: ADME, organism-based, CCRF S-180; details: in vivo, 1 h
[31] = system: Brain; experiment: Biodistribution in mouse S180 cells xenografted Kunming mouse brain at 10 to 20 uCi, iv after 60 mins by gamma counting; type: ADME, organism-based, CCRF S-180; details: in vivo, 1 h
[32] = Biodistribution in mouse S180 cells xenografted Kunming mouse tumor at 10 to 20 uCi, iv after 60 mins by gamma counting; type: ADME, organism-based, Neoplasm, CCRF S-180; details: in vivo, 1 h
[33] = Ratio of drug uptake in tumor to blood of mouse S180 cells xenografted Kunming mouse at 10 to 20 uCi, iv after 60 mins by gamma counting; type: ADME, organism-based, CCRF S-180; details: tumour, 1 h
[34] = Ratio of drug uptake in tumor to muscle of mouse S180 cells xenografted Kunming mouse at 10 to 20 uCi, iv after 60 mins by gamma counting; type: ADME, organism-based, CCRF S-180; details: in vivo, 1 h
[35] = Ratio of drug uptake in tumor to brain of mouse S180 cells xenografted Kunming mouse at 10 to 20 uCi, iv after 60 mins by gamma counting; type: ADME, organism-based, CCRF S-180; details: in vivo, 1 h
[36] = system: Heart; experiment: Biodistribution in mouse S180 cells xenografted Kunming mouse heart at 10 to 20 uCi, iv after 120 mins by gamma counting; type: ADME, organism-based, CCRF S-180; details: in vivo, 2 h
[37] = system: Liver; experiment: Biodistribution in mouse S180 cells xenografted Kunming mouse liver at 10 to 20 uCi, iv after 120 mins by gamma counting; type: ADME, organism-based, CCRF S-180; details: in vivo, 2 h
[38] = system: Pancreas; experiment: Biodistribution in mouse S180 cells xenografted Kunming mouse pancreas at 10 to 20 uCi, iv after 120 mins by gamma counting; type: ADME, organism-based, CCRF S-180; details: in vivo, 2 h
[39] = system: Lung; experiment: Biodistribution in mouse S180 cells xenografted Kunming mouse lung at 10 to 20 uCi, iv after 120 mins by gamma counting; type: ADME, organism-based, CCRF S-180; details: in vivo, 2 h
[40] = system: Kidney; experiment: Biodistribution in mouse S180 cells xenografted Kunming mouse kidney at 10 to 20 uCi, iv after 120 mins by gamma counting; type: ADME, organism-based, CCRF S-180; details: in vivo, 2 h
[41] = system: Muscle tissue; experiment: Biodistribution in mouse S180 cells xenografted Kunming mouse muscle at 10 to 20 uCi, iv after 120 mins by gamma counting; type: ADME, organism-based, CCRF S-180; details: in vivo, 2 h
[42] = system: Blood; experiment: Biodistribution in mouse S180 cells xenografted Kunming mouse blood at 10 to 20 uCi, iv after 120 mins by gamma counting; type: ADME, organism-based, CCRF S-180; details: in vivo, 2 h
[43] = system: Brain; experiment: Biodistribution in mouse S180 cells xenografted Kunming mouse brain at 10 to 20 uCi, iv after 120 mins by gamma counting; type: ADME, organism-based, CCRF S-180; details: in vivo, 2 h

Work on CCCc1nc2c(C)cc(C(=O)O)cc2n1CC[18F] yielded a Drug uptake [1] of 0.49 % ID/g, a Ratio [2] of 1.63 and a Ratio [3] of 9.8. It also gave a Drug uptake [4] of 4.48 % ID/g, a Drug uptake [5] of 2.33 % ID/g and a Drug uptake [6] of 8.33 % ID/g. It also gave a Drug uptake [7] of 1.78 % ID/g, a Drug uptake [8] of 1.03 % ID/g and a Drug uptake [9] of 2.28 % ID/g. For the same molecule, the Ratio [10] was 0.72, the Ratio [11] was 1.28 and the Ratio [12] was 2.21. The Drug uptake [13] was 1 % ID/g, the Drug uptake [14] was 1.22 % ID/g and the Drug uptake [15] was 2.25 % ID/g. The Drug uptake [16] was 0.44 % ID/g, the Drug uptake [17] was 1.41 % ID/g and the Ratio [18] was 0.63. It also gave a Ratio [19] of 1.16, a Ratio [20] of 3.2 and a Drug uptake [21] of 1.76 % ID/g. The Drug uptake [22] was 1.03 % ID/g, the Drug uptake [23] was 3.49 % ID/g and the Drug uptake [24] was 7.4 % ID/g. It also gave a Drug uptake [25] of 0.31 % ID/g, a Drug uptake [26] of 1.49 % ID/g and a Ratio [27] of 1.27. For the same molecule, the Drug uptake [28] was 1.08 % ID/g, the Drug uptake [29] was 1.55 % ID/g and the Drug uptake [30] was 0.95 % ID/g. It also gave a Drug uptake [31] of 0.19 % ID/g, a Drug uptake [32] of 1.36 % ID/g and a Ratio [33] of 1.43. For the same molecule, the Ratio [34] was 2.19, the Ratio [35] was 7.15 and the Drug uptake [36] was 0.26 % ID/g. The Drug uptake [37] was 0.38 % ID/g, the Drug uptake [38] was 0.2 % ID/g and the Drug uptake [39] was 0.66 % ID/g. It also gave a Drug uptake [40] of 1.1 % ID/g, a Drug uptake [41] of 0.19 % ID/g and a Drug uptake [42] of 0.3 % ID/g. The Drug uptake [43] was 0.05 % ID/g.
